# Reference: patent US20250275953A1, “VODOBATINIB FOR REDUCING PROGRESSION OF PARKINSON'S DISEASE” (Sun Pharma Advanced Research Company Ltd., priority 2022, published 2025)
# “And” between values parts separate entries of the source, which are not always exact repeats. Equal entries are not always repeated. Where two headings read alike, the source gives them in different places.
# Experiment: Plasma pharmacokinetics, Parkinson's disease patients, once daily for 14 days
# Format: in vivo, human
# Conditions: PD patients; for AUC(0-t) / AUC / half-life / Cmax / Tmax: human; for AUC(0-t): read-out: AUC0-24 Mean
# Excerpt: Of these, 44 subjects completed the study. An additional 10 subjects were enrolled in the open label part of the study, of these, one subject was discontinued due to an AE of vomiting.
# Safety population was comprised of 48 subjects (not including those in the open label cohorts) and PK population was comprised of 36 subjects from double blind part and 10 subjects from open label part of the study. No subjects were discontinued from the study due to protocol deviation.
# The PK analysis was performed on the PK population and safety analysis was performed on this population as per the protocol described before.
# Study NCT02970019 was a multi-center safety and tolerability study of vodobatinib in 60 subjects with Parkinson's Disease (diagnosed with PD according to the Brain Bank criteria of the United Kingdom Parkinson's Disease Society) who were randomized to receive placebo or various daily doses of vodobatinib for 14 days in a parallel assignment design with quadruple masking (participant, care provider, investigator, and outcomes assessor.) In study NCT02970019, consecutive cohorts of up to eight subjects received once-daily doses of 6, 12, 18, 24, 48, 96, 192, or 384 mg of study drug for 14 days, with six subjects in each cohort on vodobatinib and two subjects in each cohort on placebo. An alternating panel design was used such that subjects in the 6 and 18 mg cohorts were the same, and subjects in the 12 and 24 mg cohorts were the same, thus yielding 48 total individuals enrolled in the eight cohorts. There was a wash-out period of 14 days between each were studied in sequential ascending dose cohorts. In parallel to the double-blind cohorts, up to four subjects per dose cohort were enrolled in an open-label study of vodobatinib to receive 24, 48 or 96 mg once-daily doses of for 14 days. These subjects underwent lumbar puncture to collect CSF on Day 1, and 2-3 h after the last morning dose on Day 14. PK blood draws (for both double-blind and open label) were collected at pre-dose (˜30 min) and at 0.5, 1, 2, 4, 8, 12 and 24 h post-dose on Days 1 and 14.
# Vodobatinib levels in plasma and CSF were determined using a fully validated LC-MS/MS assay with lower limits of quantitation (LLOQ) of 2.5 ng/mL and 0.05 ng/mL, respectively. PK analyses were performed using standard non-compartmental analysis with Phoenix® WinNonlin® software Version 6.4 to estimate the PK parameters Cmax, Tmax, AUCtau and Css. Descriptive statistics were used to characterize vodobatinib concentrations and PK parameters in plasma and CSF. Statistical calculations were performed with SAS software (Version 9.4, SAS Institute, Cary, North Carolina, USA).
smiles,measurement,setting,value
Cc1ccc(C(=O)NNC(=O)c2c(C)cccc2Cl)cc1C#Cc1cnc2ccccc2c1 [N′-(2-chloro-6-methylbenzoyl)-4-methyl-3-[2-(3-quinolyl)ethynyl]-benzohydrazide],Max Conc Geo. Mean,6 mg,138.72 ng/mL
same,Max Conc Mean,6 mg,182 ng/mL and 181.67 ng/mL
same,Max Conc Median,6 mg,133.50 ng/mL
same,Max Conc Geo. Mean,12 mg,270.17 ng/mL
same,Max Conc Mean,12 mg,301.00 ng/mL
same,Max Conc Median,12 mg,242.50 ng/mL
same,Max Conc Geo. Mean,18 mg,300.12 ng/mL
same,Max Conc Mean,18 mg,308.50 ng/mL
same,Max Conc Median,18 mg,310.00 ng/mL
same,Max Conc Geo. Mean,24 mg,677.41 ng/mL
same,Max Conc Mean,24 mg,715.25 ng/mL
same,Max Conc Median,24 mg,657.00 ng/mL
same,Max Conc Geo. Mean,48 mg,930.30 ng/mL
same,Max Conc Mean,48 mg,1110.44 ng/mL
same,Max Conc Median,48 mg,844.00 ng/mL
same,Max Conc Geo. Mean,96 mg,2298.86 ng/mL
same,Max Conc Mean,96 mg,2802.50 ng/mL
same,Max Conc Median,96 mg,2350.00 ng/mL
same,Max Conc Geo. Mean,192 mg,2561.39 ng/mL
same,Max Conc Mean,192 mg,3233.80 ng/mL
same,Max Conc Median,192 mg,2580.00 ng/mL
same,Max Conc Geo. Mean,384 mg,4198.52 ng/mL
same,Max Conc Mean,384 mg,4512 ng/mL and 4512.00 ng/mL
same,Max Conc Median,384 mg,5320.00 ng/mL
same,AUC(0-t),"6 mg, Day 14, plasma",1250 ng·h/mL
same,AUC,"6 mg, read-out: AUC Over Dosing Interval Geo. Mean",1090 ng·h/mL
same,AUC,"6 mg, read-out: AUC Over Dosing Interval Mean",1250 ng·h/mL
same,AUC,"6 mg, read-out: AUC Over Dosing Interval Median",1040 ng·h/mL
same,AUC,"6 mg, read-out: AUC Over Dosing Interval Min, Max",470 to 2360 ng·h/mL
same,half-life,"6 mg, read-out: Half-Life Lambda Z Geo. Mean (converted)",11.1 h
same,half-life,"6 mg, read-out: Half-Life Lambda Z Mean (converted)",11.1 h
same,half-life,"6 mg, read-out: Half-Life Lambda Z Median (converted)",11.1 h
same,half-life,"6 mg, read-out: Half-Life Lambda Z Min, Max (converted)",11.1 h
same,AUC,"12 mg, read-out: AUC Over Dosing Interval Geo. Mean",2710 ng·h/mL
same,AUC,"12 mg, read-out: AUC Over Dosing Interval Mean",3250 ng·h/mL
same,AUC,"12 mg, read-out: AUC Over Dosing Interval Median",2530 ng·h/mL
same,AUC,"12 mg, read-out: AUC Over Dosing Interval Min, Max",1440 to 8240 ng·h/mL
same,AUC,"18 mg, read-out: AUC Over Dosing Interval Geo. Mean",2860 ng·h/mL
same,AUC,"18 mg, read-out: AUC Over Dosing Interval Mean",3370 ng·h/mL
same,AUC,"18 mg, read-out: AUC Over Dosing Interval Median",4160 ng·h/mL
same,AUC,"18 mg, read-out: AUC Over Dosing Interval Min, Max",908 to 4260 ng·h/mL
same,half-life,"18 mg, read-out: Half-Life Lambda Z Mean (converted)",13.5 h
same,half-life,"18 mg, read-out: Half-Life Lambda Z Median (converted)",13.5 h
same,half-life,"18 mg, read-out: Half-Life Lambda Z Min, Max (converted)",13.5 h
same,AUC,"24 mg, read-out: AUC Over Dosing Interval Geo. Mean",5250 ng·h/mL
same,AUC,"24 mg, read-out: AUC Over Dosing Interval Mean",5720 ng·h/mL
same,AUC,"24 mg, read-out: AUC Over Dosing Interval Median",6640 ng·h/mL
same,AUC,"24 mg, read-out: AUC Over Dosing Interval Min, Max",2460 to 8080 ng·h/mL
same,half-life,"24 mg, read-out: Half-Life Lambda Z Geo. Mean (converted)",10.5 h
same,half-life,"24 mg, read-out: Half-Life Lambda Z Mean (converted)",10.6 h
same,half-life,"24 mg, read-out: Half-Life Lambda Z Median (converted)",10.6 h
same,half-life,"24 mg, read-out: Half-Life Lambda Z Min, Max (converted)",8.9 to 12.4 h
same,AUC,"48 mg, read-out: AUC Over Dosing Interval Geo. Mean",7010 ng·h/mL
same,AUC,"48 mg, read-out: AUC Over Dosing Interval Mean",7910 ng·h/mL
same,AUC,"48 mg, read-out: AUC Over Dosing Interval Median",8670 ng·h/mL
same,AUC,"48 mg, read-out: AUC Over Dosing Interval Min, Max",2910 to 14200 ng·h/mL
same,half-life,"48 mg, read-out: Half-Life Lambda Z Geo. Mean (converted)",16.6 h
same,half-life,"48 mg, read-out: Half-Life Lambda Z Mean (converted)",19.6 h
same,half-life,"48 mg, read-out: Half-Life Lambda Z Median (converted)",11.3 h
same,half-life,"48 mg, read-out: Half-Life Lambda Z Min, Max (converted)",11.2 to 36.3 h
same,AUC,"96 mg, read-out: AUC Over Dosing Interval Geo. Mean",15100 ng·h/mL
same,AUC,"96 mg, read-out: AUC Over Dosing Interval Mean",17100 ng·h/mL
same,AUC,"96 mg, read-out: AUC Over Dosing Interval Median",13900 ng·h/mL
same,AUC,"96 mg, read-out: AUC Over Dosing Interval Min, Max",6870 to 38700 ng·h/mL
same,half-life,"96 mg, read-out: Half-Life Lambda Z Geo. Mean (converted)",13.2 h
same,half-life,"96 mg, read-out: Half-Life Lambda Z Mean (converted)",15.7 h
same,half-life,"96 mg, read-out: Half-Life Lambda Z Median (converted)",15.5 h
same,half-life,"96 mg, read-out: Half-Life Lambda Z Min, Max (converted)",5.7 to 26.1 h
same,AUC,"192 mg, read-out: AUC Over Dosing Interval Geo. Mean",27600 ng·h/mL
same,AUC,"192 mg, read-out: AUC Over Dosing Interval Mean",33800 ng·h/mL
same,AUC,"192 mg, read-out: AUC Over Dosing Interval Median",24800 ng·h/mL
same,AUC,"192 mg, read-out: AUC Over Dosing Interval Min, Max",13800 to 82700 ng·h/mL
same,AUC(0-t),"384 mg, Day 14, plasma",43800 ng·h/mL
same,AUC,"384 mg, read-out: AUC Over Dosing Interval Geo. Mean",40400 ng·h/mL
same,AUC,"384 mg, read-out: AUC Over Dosing Interval Mean",43800 ng·h/mL
same,AUC,"384 mg, read-out: AUC Over Dosing Interval Median",44500 ng·h/mL
same,AUC,"384 mg, read-out: AUC Over Dosing Interval Min, Max",18600 to 66700 ng·h/mL
same,Cmax,"oral, 6 mg, Day 1, plasma",164 ng/mL
same,AUC(0-t),"oral, 6 mg, Day 1, plasma",794 ng·h/mL
same,Tmax,"oral, 6 mg, Day 1, plasma, read-out: Tmax median",2 h
same,Cmax,"oral, 6 mg, Day 14, plasma",182 ng/mL
same,Tmax,"oral, 6 mg, Day 14, plasma, read-out: Tmax median (range)",2 h
same,Cmax,"oral, 12 mg, Day 1, plasma",255 ng/mL
same,AUC(0-t),"oral, 12 mg, Day 1, plasma",2040 ng·h/mL
same,Tmax,"oral, 12 mg, Day 1, plasma, read-out: Tmax median",2 h
same,Cmax,"oral, 12 mg, Day 14, plasma",301 ng/mL
same,AUC(0-t),"oral, 12 mg, Day 14, plasma",3250 ng·h/mL
same,Tmax,"oral, 12 mg, Day 14, plasma, read-out: Tmax median (range)",2 h
same,Cmax,"oral, 18 mg, Day 1, plasma",410 ng/mL
same,AUC(0-t),"oral, 18 mg, Day 1, plasma",2730 ng·h/mL
same,Tmax,"oral, 18 mg, Day 1, plasma, read-out: Tmax median",2 h
same,Cmax,"oral, 18 mg, Day 14, plasma",309 ng/mL
same,AUC(0-t),"oral, 18 mg, Day 14, plasma",3370 ng·h/mL
same,Tmax,"oral, 18 mg, Day 14, plasma, read-out: Tmax median (range)",3 h
same,Cmax,"oral, 24 mg, Day 1, plasma",385 ng/mL
same,AUC(0-t),"oral, 24 mg, Day 1, plasma",2690 ng·h/mL
same,Tmax,"oral, 24 mg, Day 1, plasma, read-out: Tmax median",4 h
same,Cmax,"oral, 24 mg, Day 14, plasma",715 ng/mL
same,AUC(0-t),"oral, 24 mg, Day 14, plasma",5720 ng·h/mL
same,Tmax,"oral, 24 mg, Day 14, plasma, read-out: Tmax median (range)",2 h
same,Cmax,"oral, 48 mg, Day 1, plasma",964 ng/mL
same,AUC(0-t),"oral, 48 mg, Day 1, plasma",5310 ng·h/mL
same,Tmax,"oral, 48 mg, Day 1, plasma, read-out: Tmax median",4 h
same,Cmax,"oral, 48 mg, Day 14, plasma",1110 ng/mL
same,AUC(0-t),"oral, 48 mg, Day 14, plasma",7910 ng·h/mL
same,Tmax,"oral, 48 mg, Day 14, plasma, read-out: Tmax median (range)",2 h
same,Cmax,"oral, 96 mg, Day 1, plasma",1360 ng/mL
same,AUC(0-t),"oral, 96 mg, Day 1, plasma",10200 ng·h/mL
same,Tmax,"oral, 96 mg, Day 1, plasma, read-out: Tmax median",4 h
same,Cmax,"oral, 96 mg, Day 14, plasma",2800 ng/mL
same,AUC(0-t),"oral, 96 mg, Day 14, plasma",17100 ng·h/mL
same,Tmax,"oral, 96 mg, Day 14, plasma, read-out: Tmax median (range)",2 h
same,Cmax,"oral, 192 mg, Day 1, plasma",1530 ng/mL
same,AUC(0-t),"oral, 192 mg, Day 1, plasma",18600 ng·h/mL
same,Tmax,"oral, 192 mg, Day 1, plasma, read-out: Tmax median",2 h
same,Cmax,"oral, 192 mg, Day 14, plasma",3230 ng/mL
same,AUC(0-t),"oral, 192 mg, Day 14, plasma",33800 ng·h/mL
same,Tmax,"oral, 192 mg, Day 14, plasma, read-out: Tmax median (range)",1 h
same,Cmax,"oral, 384 mg, Day 1, plasma",3020 ng/mL
same,AUC(0-t),"oral, 384 mg, Day 1, plasma",29900 ng·h/mL
same,Tmax,"oral, 384 mg, Day 1, plasma, read-out: Tmax median",4.1 h
same,Cmax,"oral, 384 mg, Day 14, plasma",4510 ng/mL
same,AUC(0-t),"oral, 384 mg, Day 14, plasma",43500 ng·h/mL
same,Tmax,"oral, 384 mg, Day 14, plasma, read-out: Tmax median (range)",1 h
